Assay: Odour description on paper blotter
Details: 1% solution in EtOH on paper blotter, 24 h

| Compound | Odour description |
| --- | --- |
| C=C(C)[C@@H]1CC[C@@H](C)C[C@@H]1Oc1ccc(CCC(C)=O)cc1 [Example 14, 4-(4-(((1S,2S,5R)-5-methyl-2-(prop-1-en-2-yl)cyclohexyl)oxy)phenyl)butan-2-one] | sweet fruity (raspberry) |
| CC(=O)CCc1ccc(OCCC=C(C)CCc2ccc3c(c2)OCO3)cc1 [Example 80, 4-(4-((6-(benzo[d][1,3]dioxol-5-yl)-4-methylhex-3-en-1-yl)oxy)phenyl)butan-2-one] | fruity, raspberry, grenadine, berryflor, fresh, transparent |
| CCCCC/C=C\CCOc1ccc(C=O)cc1OCC [Example 64, (Z)-3-ethoxy-4-(non-3-en-1-yloxy)benzaldehyde] | vanilla (powdery, spicy, creamy) |
| COC(=O)c1c(C)cc(OCCC=C(C)CCC=C(C)CCC=C(C)C)c(C)c1O [Example 66, methyl 2-hydroxy-3,6-dimethyl-4-((4,8,12-trimethyltrideca-3,7,11-trien-1-yl)oxy)benzoate] | powdery mossy (evernyl) |
| CC/C=C\CC(C/C=C\CC)Oc1ccc(C=O)cc1OCC [Example 41, 3-ethoxy-4-(((3Z,8Z)-undeca-3,8-dien-6-yl)oxy)benzaldehyde] | vanilla, powdery |
| CC/C=C\CCCC/C=C/CCOc1ccc(C=O)cc1OCC [Example 76, 4-(((3E,9Z)-dodeca-3,9-dien-1-yl)oxy)-3-ethoxybenzaldehyde] | green, melon, powdery, vanilla |
| CCOc1cc(C=O)ccc1OC(C)(C)CC=C=C(C)CCC=C(C)C [Example 18, 3-ethoxy-4-((2,6,10-trimethylundeca-4,5,9-trien-2-yl)oxy)benzaldehyde] | vanilla powdery |
| CC/C=C\CCCC/C=C/CCOc1cc(C)c(C(=O)OC)c(O)c1C [Example 77, methyl 4-(((3E,9Z)-dodeca-3,9-dien-1-yl)oxy)-2-hydroxy-3,6-dimethylbenzoate] | powdery, oakmoss |
| CCC=CCC(CCCCCCCCC)Oc1ccc(CCC(C)=O)cc1 (centres unmarked) [Example 39, 4-(4-(pentadec-3-en-6-yloxy)phenyl)butan-2-one] | raspberry, mandarin, citrus, aldehydic, fresh |
| 1-(dec-1-en-4-yloxy)-2-ethoxy-4-methylbenzene and 2-(dec-1-en-4-yloxy)-1-ethoxy-4-methylbenzene [Example 46] | medicinal, phenolic, vanilla |
| CCC(=O)c1ccccc1OCCC=C(C)CCc1ccccc1 [Example 57, 1-(2-((4-methyl-6-phenylhex-3-en-1-yl)oxy)phenyl)propan-1-one] | wintergreen, salicylate, slightly powdery, vanilla |
| CC(=O)CCc1ccc(OCCC=C(C)CCCc2ccccc2)cc1 [Example 59, 4-(4-((4-methyl-7-phenylhept-3-en-1-yl)oxy)phenyl)butan-2-one] | powdery fruity, raspberry |
| CCCCCC[C@@H](C/C=C\CCCCCCCC(=O)OC)Oc1cc(C)c(C(=O)OC)c(O)c1C [Example 3, methyl (S,Z)-2-hydroxy-4-((18-methoxy-18-oxooctadec-9-en-7-yl)oxy)-3,6-dimethylbenzoate] | powdery mossy, evernyl, green, fatty |
| C=CCC(CCCCCC)Oc1cc(C)c(C(=O)OC)c(O)c1C (centres unmarked) [Example 24, methyl 4-(dec-1-en-4-yloxy)-2-hydroxy-3,6-dimethylbenzoate] | powdery (mossy, evernyl) |
| C=CCC(CCCCCCCCC)Oc1ccc(C=O)cc1OC (centres unmarked) [Example 35, 3-methoxy-4-(tridec-1-en-4-yloxy)benzaldehyde] | powdery, vanilla, aldehydic, green, metallic, mandarin |
| CCCCCCC(C/C=C\CCCCCCCC(=O)OC)Oc1ccccc1OC (centres unmarked) [Example 45, methyl (Z)-12-(2-methoxyphenoxy)octadec-9-enoate] | phenolic, medicinal, guaiacol, vanilla absolute, peru balsam |
| CC(=O)CCc1ccc(OCCC=C(C)CCC2=C(C)CCCC2(C)C)cc1 [Example 82, 4-(4-((4-methyl-6-(2,6,6-trimethylcyclohex-1-en-1-yl)hex-3-en-1-yl)oxy)phenyl)butan-2-one] | fruity, sweet, powdery, raspberry ketone |

Reference: patent US20240417359A1, “PRECURSORS OF PHENOLIC FRAGRANT COMPOUNDS” (GIVAUDAN SA, priority 2021, published 2024)
